From patent publication US12209081B2 (Katholieke Universiteit Leuven, priority 2020, dated 2025) come the findings set out here.

The assay addresses mouse TRPM3α2 (mTRPM3) ion channel (Mus musculus (Mouse), UniProt J9SQF3). The assay is described as follows: TRPM3 ion channel driven Ca2+ uptake, Fluo-4 AM assay, mTRPM3alpha2 overexpressing flip-in HEK293 cells stimulated with pregnenolone sulfate. In kind it is cell-based. In a few lines: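 Read-out is Ca2+ influx via Fluo-4 AM fluorescence at 485/535 nm, taken right after seeding ~2000 cells/well onto compound with 50 μM PS. Inhibition computed from RFU between vehicle-stimulated and positive-control-inhibitor wells; cells were mTRPM3α2-overexpressing flip-in HEK293.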

[1] abbreviates: PS (50 μM) stimulated, cpd 001-199.
[2] abbreviates: PS (50 μM) stimulated, cpds. 500-599.
The mark [3] stands for this setting: PS (50 μM) stimulated, cpds. 400-499.
Setting [4] is: PS (50 μM) stimulated, cpds. 667-751.
The mark [5] stands for this setting: PS (50 μM) stimulated, cpds. 608-666.

mouse TRPM3α2 (mTRPM3) ion channel, sequence (J9SQF3 other isoform, or with tags, fused parts or gaps): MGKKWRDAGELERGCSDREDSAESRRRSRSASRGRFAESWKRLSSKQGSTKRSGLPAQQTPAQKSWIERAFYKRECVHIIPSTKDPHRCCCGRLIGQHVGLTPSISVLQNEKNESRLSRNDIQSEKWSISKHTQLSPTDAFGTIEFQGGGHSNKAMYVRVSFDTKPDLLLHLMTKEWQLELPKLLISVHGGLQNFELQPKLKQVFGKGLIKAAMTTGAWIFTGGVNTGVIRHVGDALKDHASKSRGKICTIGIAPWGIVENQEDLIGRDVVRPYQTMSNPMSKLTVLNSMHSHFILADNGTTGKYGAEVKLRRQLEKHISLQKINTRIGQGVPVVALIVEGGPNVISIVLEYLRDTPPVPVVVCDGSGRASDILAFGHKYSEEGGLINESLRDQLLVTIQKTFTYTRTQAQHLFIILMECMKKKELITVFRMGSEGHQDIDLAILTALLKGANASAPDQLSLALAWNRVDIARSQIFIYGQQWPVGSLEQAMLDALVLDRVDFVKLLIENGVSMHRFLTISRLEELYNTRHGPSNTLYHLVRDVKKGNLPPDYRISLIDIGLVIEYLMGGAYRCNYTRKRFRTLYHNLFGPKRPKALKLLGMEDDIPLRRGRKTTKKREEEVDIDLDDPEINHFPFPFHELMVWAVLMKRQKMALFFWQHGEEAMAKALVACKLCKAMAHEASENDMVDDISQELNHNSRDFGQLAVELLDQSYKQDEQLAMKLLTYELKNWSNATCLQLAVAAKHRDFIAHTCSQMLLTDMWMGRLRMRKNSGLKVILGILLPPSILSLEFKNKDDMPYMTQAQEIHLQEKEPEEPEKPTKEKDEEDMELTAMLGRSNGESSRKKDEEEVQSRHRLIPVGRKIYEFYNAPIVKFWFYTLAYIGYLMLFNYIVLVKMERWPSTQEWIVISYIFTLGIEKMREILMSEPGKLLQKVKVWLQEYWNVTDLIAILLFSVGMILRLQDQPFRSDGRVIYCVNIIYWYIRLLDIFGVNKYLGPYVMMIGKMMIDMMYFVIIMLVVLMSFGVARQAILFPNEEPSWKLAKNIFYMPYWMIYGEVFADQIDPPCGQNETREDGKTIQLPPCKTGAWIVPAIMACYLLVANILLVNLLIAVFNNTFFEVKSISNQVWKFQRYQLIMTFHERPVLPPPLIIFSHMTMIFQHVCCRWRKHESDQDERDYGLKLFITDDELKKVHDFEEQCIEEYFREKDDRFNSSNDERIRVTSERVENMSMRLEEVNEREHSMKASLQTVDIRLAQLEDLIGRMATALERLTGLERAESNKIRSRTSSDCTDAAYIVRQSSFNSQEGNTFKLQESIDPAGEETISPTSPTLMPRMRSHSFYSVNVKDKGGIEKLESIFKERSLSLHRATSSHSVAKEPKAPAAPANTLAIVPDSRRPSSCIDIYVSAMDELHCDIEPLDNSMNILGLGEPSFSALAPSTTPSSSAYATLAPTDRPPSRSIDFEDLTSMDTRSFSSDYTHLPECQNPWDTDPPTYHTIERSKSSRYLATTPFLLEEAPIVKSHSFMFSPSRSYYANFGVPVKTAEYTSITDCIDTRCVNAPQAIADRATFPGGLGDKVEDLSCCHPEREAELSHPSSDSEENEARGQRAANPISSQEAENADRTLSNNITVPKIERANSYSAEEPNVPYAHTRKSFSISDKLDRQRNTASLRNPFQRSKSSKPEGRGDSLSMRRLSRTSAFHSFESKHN

As usually defined, the IC50 is the concentration needed to halve the response being measured. Low readings indicate higher potency, high ones lower potency. Molecule `Cc1ncc(COc2ccc3oc(C)c(C(=O)N[C@H](CO)CS(C)(=O)=O)c3c2)s1` [compound 274, (R)-N-(1-hydroxy-3-(methylsulfonyl)propan-2-yl)-2-methyl-5-((2-methylthiazol-5-yl)methoxy)benzofuran-3-carboxamide] displayed an IC50 (PS 50 μM, cpds 200-299) of under 1 µM. As to `Cc1oc2ccc(OCc3cccnc3C(F)(F)F)cc2c1C(=O)NC1CNCC1(F)F` (single isomer, unassigned) [cpd 105-En 1, N-(4,4-difluoropyrrolidin-3-yl)-2-methyl-5-((2-(trifluoromethyl)pyridin-3-yl)methoxy)benzofuran-3-carboxamide], the IC50 under setting [1] is under 1 µM. For the molecule `Cc1ncsc1COc1ccc2oc(C(F)F)c(C(=O)NC3(C(N)=O)COC3)c2c1` [compound 577, N-(3-carbamoyloxetan-3-yl)-2-(difluoromethyl)-5-((4-methylthiazol-5-yl)methoxy)benzofuran-3-carboxamide], under setting [2], the IC50 was under 1 µM. As to `Cc1ncsc1COc1ccc2oc(C(F)F)c(C(=O)NC3CCN(CCO)C3=O)c2c1` (single isomer, unassigned) [198-En 1, 2-(difluoromethyl)-N-(1-(2-hydroxyethyl)-2-oxopyrrolidin-3-yl)-5-((4-methylthiazol-5-yl) -methoxy)benzofuran-3-carboxamide], the IC50 under setting [1] was in the range of 1 to 20 µM. Turning to `COc1ncccc1COc1ccc2oc(C)c(C(=O)NC3(CO)CC3)c2c1` [compound 421, N-(1-(hydroxymethyl)cyclopropyl)-5-((2-methoxypyridin-3-yl)methoxy)-2-methylbenzofuran-3-carboxamide], under setting [3], the concentration for half-maximal inhibition (IC50) is under 1 µM. With `Cc1ncsc1COc1ccc2oc(C)c(C(=O)NC(C)c3ncco3)c2c1` (single isomer, unassigned) [cpd 315-En 1], under “PS 50 μM, cpds 300-399”, the IC50 was under 1 µM.

Under setting [4], `Cc1oc2ccc(OCc3cccnc3OC3CC3)cc2c1C(=O)NC1(CO)CCOCC1` [compound 711, 5-((2-cyclopropoxypyridin-3-yl)methoxy)-N-(4-(hydroxymethyl)tetrahydro-2H-pyran-4-yl)-2-methylbenzofuran-3-carboxamide] registered an IC50 of under 1 µM. `Cc1ncsc1COc1ccc2oc(C)c(C(=O)NCC(C)(C)CO)c2c1` [compound 602, N-(3-hydroxy-2,2-dimethylpropyl)-2-methyl-5-((4-methylthiazol-5-yl)methoxy)benzofuran-3-carboxamide]: under setting [5], the IC50 was under 1 µM.

In turn, `Cc1cnc(COc2ccc3oc(C)c(C(=O)NC4CCNCC4(F)F)c3c2)s1` (single isomer, unassigned) [cpd 555-En 1] returned an IC50 under setting [2] of under 1 µM. For `Cc1ncsc1COc1ccc2oc(C)c(C(=O)NC(C)(C)CO)c2c1` [compound 104, N-(1-hydroxy-2-methylpropan-2-yl)-2-methyl-5-((4-methylthiazol-5-yl)methoxy)benzofuran-3-carboxamide], under setting [1], the IC50 is under 1 µM. Take `Cc1ncsc1COc1ccc2oc(C)c(C(=O)N[C@H](C)C(N)=O)c2c1` [compound 271, (R)-N-(1-amino-1-oxopropan-2-yl)-2-methyl-5-((4-methylthiazol-5-yl)methoxy)benzofuran-3-carboxamide]: under “PS 50 μM, cpds 200-299”, the IC50 was under 1 µM. For `Cc1cc(COc2ccc3oc(C)c(C(=O)NC4(CO)CCOCC4)c3c2)no1` [compound 618, N-(4-(hydroxymethyl)tetrahydro-2H-pyran-4-yl)-2-methyl-5-((5-methylisoxazol-3-yl)methoxy)benzofuran-3-carboxamide], the IC50 under setting [5] was under 1 µM. Turning to `Cc1oc2ccc(OCc3cccnc3C(F)(F)F)cc2c1C(=O)N[C@@H](CO)C(N)=O` [compound 280, (S)-N-(1-amino-3-hydroxy-1-oxopropan-2-yl)-2-methyl-5-((2-(trifluoromethyl)pyridin-3-yl)methoxy)benzofuran-3-carboxamide], the IC50 (PS 50 μM, cpds 200-299) is under 1 µM.

Under setting [2], `Cc1oc2ccc(OCc3cncs3)cc2c1C(=O)NC1CCNCC1(F)F` (single isomer, unassigned) [cpd 561-En 1] came in with an IC50 of under 1 µM. The molecule `Cc1oc2ccc(OCc3cccnc3C(F)(F)F)cc2c1C(=O)NC1COCC1O` (single isomer, unassigned) [147-Dia 1-En 2, N-(4-hydroxytetrahydrofuran-3-yl)-2-methyl-5-((2-(trifluoromethyl)pyridin-3-yl)methoxy) -benzofuran-3-carboxamide] gave an IC50 under setting [1] of under 1 µM. As for `Cc1oc2ccc(OCc3ccccn3)cc2c1C(=O)NC1(C(N)=O)CC1` [compound 478, N-(1-carbamoylcyclopropyl)-2-methyl-5-(pyridin-2-ylmethoxy)benzofuran-3-carboxamide], the IC50 under setting [3] is under 1 µM. For the molecule `Cc1oc2ccc(OCc3ccccn3)cc2c1C(=O)NC1(CO)CCOC1` (single isomer, unassigned) [cpd 534-En 1], the IC50 under setting [2] is under 1 µM. `Cc1ncc(COc2ccc3oc(C)c(C(=O)N[C@H](C(N)=O)[C@@H](C)O)c3c2)s1` [compound 377, N-((2S,3R)-1-amino-3-hydroxy-1-oxobutan-2-yl)-2-methyl-5-((2-methylthiazol-5-yl)methoxy)benzofuran-3-carboxamide] came in with an IC50 (PS 50 μM, cpds 300-399) of under 1 µM. Under setting [4], `Cc1oc2ccc(OCc3cnc(C(C)C)s3)cc2c1C(=O)N[C@@H](CO)C(N)=O` [compound 682, (S)-N-(1-Amino-3-hydroxy-1-oxopropan-2-yl)-5-((2-isopropylthiazol-5-yl)methoxy)-2-methylbenzofuran-3-carboxamide] registered a concentration for half-maximal inhibition (IC50) of under 1 µM. Under setting [3], `COc1ncccc1COc1ccc2oc(C)c(C(=O)NC(C)(C)CO)c2c1` [compound 486, N-(1-hydroxy-2-methylpropan-2-yl)-5-((2-methoxypyridin-3-yl)methoxy)-2-methylbenzofuran-3-carboxamide] gave an IC50 of under 1 µM. As for `Cc1ncsc1COc1cc(F)c2oc(C)c(C(=O)NC3CCNCC3(F)F)c2c1` (single isomer, unassigned) [cpd 573-En 2], the IC50 under setting [2] was in the range of 1 to 20 µM.

Under setting [1], `Cc1ncsc1COc1ccc2oc(C)c(C(=O)NC3COCC3O)c2c1` (single isomer, unassigned; dia 1) [162-Dia 1-En1] came in with an IC50 of under 1 µM. Consider `Cc1ncsc1COc1ccc2oc(C(F)F)c(C(=O)NC3CCNCC3(F)F)c2c1` (single isomer, unassigned) [cpd 310-En 2], for which the IC50 (PS 50 μM, cpds 300-399) was under 1 µM. Take `Cc1oc2ccc(OCc3ccccn3)cc2c1C(=O)NC1COCC1(F)F` (single isomer, unassigned) [cpd 647-En 1]: the IC50 under setting [5] is under 1 µM. Regarding `Cc1oc2ccc(OCc3c(F)cnn3C)cc2c1C(=O)N[C@@H](CO)C(N)=O` [compound 302, (S)-N-(1-amino-3-hydroxy-1-oxopropan-2-yl)-5-((4-fluoro-1-methyl-1H-pyrazol-5-yl)methoxy) -2-methylbenzofuran-3-carboxamide], where the note is “PS 50 μM, cpds 300-399”, the IC50 was under 1 µM. As for `Cc1ncc(COc2ccc3oc(C)c(C(=O)NC4COCC4(F)F)c3c2)s1` (single isomer, unassigned) [cpd 643-En 1], the IC50 under setting [5] is under 1 µM. Molecule `Cc1oc2ccc(OCc3cccnc3C(F)(F)F)cc2c1C(=O)Nc1ccn(C)n1` [compound 146, 2-methyl-N-(1-methyl-1H-pyrazol-3-yl)-5-((2-(trifluoromethyl)pyridin-3-yl)methoxy)benzofuran-3-carboxamide] displayed an IC50 under setting [1] of under 1 µM. `Cc1oc2ccc(OCc3ccnn3C)cc2c1C(=O)NC1(CO)COC1` [compound 524, N-(3-(hydroxymethyl)oxetan-3-yl)-2-methyl-5-((1-methyl-1H-pyrazol-5-yl)methoxy)benzofuran-3-carboxamide] yielded an IC50 under setting [2] of under 1 µM.
